Results reported in ChEMBL document CHEMBL1201862, “PubChem BioAssay data set” (2004).
Activity calls are given as the source filed them.

Legend:
Galanin receptor type 3 = Galanin receptor type 3 (Homo sapiens, UniProt O60755); experiment: Fluorescence-based cell-based primary high throughput dose response assay to identify antagonists of the Galanin Receptor 3 (GalR3).; assay type: functional
[1] = reduction of Shn3 3'UTR firefly luciferase signal, dose response, Schnurri-3 inhibitor project, cell-based, Clone20 osteoblasts, cherry-pick, set 2 (AID 720490); assay type: functional;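 note: actives lower the luminescence signal as inhibitors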
[2] = control 3'UTR Renilla luciferase suppression, dose response, counter-screen for Shn3 inhibitor project, cell-based, Clone20-Shn3RL, cherry-picked (AID 624133); assay type: functional
[3] = C. albicans growth with fluconazole, confirmation, fluorescence, retest (AID 2467); assay type: functional, cell-based
[4] = NIH-3T3 fibroblast cytotoxicity, dose response, cytotoxicity control, cell-based, fluorescence, Alamar Blue, secondary assay (AID 2327); assay type: functional;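 note: NIH-3T3 mouse fibroblasts cultured with fluconazole at 8 µg/mL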
[5] = biological target: Heat shock protein HSP 90-alpha (Homo sapiens, UniProt P07900); assay type: functional, organism-based
[6] = Shn3 3'UTR reporter inhibitors, dose response, cell-based, Clone20 osteoblasts, firefly luciferase, cherry-picked (AID 624132); assay type: functional;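 note: firefly luciferase luminescence from reporter carrying the Shn3 3'UTR in osteoblasts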
cells = assay type: functional, cell-based; settings: HEK-CNG
[7] = cytotoxicity in HEK-293T cells, dose response, cytotoxicity control for TCR NF-kB inhibitor project, luminescence, T-cell screen hits (AID 489026); assay type: functional, cell-based;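 note: cells exposed to compound about 14 hours before the viability readout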
[8] = HepG2 cell cytotoxicity, dose response, cytotoxicity control for Shn3 inhibitor project, CellTiter-Glo, cherry-picked (AID 624134); assay type: functional, cell-based
[9] = HEK293 Cytotoxicity Assay Measured in Cell-Based System Using Plate Reader - 7071-01_Inhibitor_Dose_CherryPick_Activity_Set2.; assay type: functional
HEK293 = experiment: HEK293T cell cytotoxicity, dose response, cytotoxicity control, ATP luminescence, cherry-pick samples (AID 687005); assay type: functional, cell-based; settings: Homo sapiens;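 note: cells exposed to compound for 48 hours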
Vasopressin V1b receptor = Vasopressin V1b receptor (Homo sapiens, UniProt P47901); experiment: Late-stage results from the probe development effort to identify antagonists of arginine vasopressin receptor 1a (AVPR1a): fluorescence-based cell-based dose response AVPR1b inhibition counterscreen assay.; assay type: functional
[10] = Late-stage results from the probe development effort to identify antagonists of arginine vasopressin receptor 1a (AVPR1a): fluorescence-based cell-based dose response OXTR inhibition counterscreen assay.; assay type: functional
[11] = Late-stage results from the probe development effort to identify antagonists of arginine vasopressin receptor 1a (AVPR1a): fluorescence-based cell-based dose response AVPR1a inhibition assay.; assay type: functional
Vasopressin V2 receptor = Vasopressin V2 receptor (Homo sapiens, UniProt P30518); experiment: Late-stage results from the probe development effort to identify antagonists of arginine vasopressin receptor 1a (AVPR1a): fluorescence-based cell-based dose response AVPR2 inhibition counterscreen assay.; assay type: functional
Jurkat = experiment: antigen receptor-induced NF-kB inhibitors, dose response, Jurkat, luciferase reporter, luminescence, B- and T-cell (AID 489004); assay type: functional, cell-based; settings: Homo sapiens;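 note: NF-kB luciferase reporter Jurkat cells stimulated with PMA plus ionomycin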
[12] = inhibitors of HIV Env-driven cell fusion, dose response, cherry-pick (AID 652057); assay type: functional, cell-based
[13] = cytotoxicity in HEK-293T NF-kB-Luc cells, dose response, cytotoxicity control for B/T-cell NF-kB inhibitor project, cell-based, uHTS hits (AID 489019); assay type: functional;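 note: IC50 reflects cytotoxicity as loss of cell viability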
[14] = A549 cell cytotoxicity, dose response, cytotoxicity control, plate reader, cherry-pick, antagonist series (AID 743412); assay type: functional, cell-based
[15] = non-specific cell cytotoxicity, dose response, cytotoxicity control for PAX8 inhibitor project, plate reader, dry powder samples (AID 743021); assay type: functional, cell-based
[16] = nonselective inhibitors of cellular cAMP signaling, dose response, counter-screen for MC4R biased antagonist project, cell-based, TR-FRET cAMP detection (AID 602305); assay type: functional;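 note: U2OS cells stimulated with forskolin near its EC80 as the cAMP inducer; potency is for inhibition of forskolin-stimulated cAMP signaling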
[17] = ZM109 Env clade C HIV-1 fusion inhibitors, dose response, HeLa effector, CEM target cells, luciferase, cherry-pick (AID 652058); assay type: functional, cell-based
[18] = biological target: T1, Microphthalmia-associated transcription factor (Homo sapiens, UniProt O75030); experiment: TRPM1 promoter luciferase signal decrease, dose response, MITF inhibitor project, cell-based, SK-MEL-5, cherry-picked, set 3 (AID 493073); assay type: functional
T1 sequence (O75030 whole entry): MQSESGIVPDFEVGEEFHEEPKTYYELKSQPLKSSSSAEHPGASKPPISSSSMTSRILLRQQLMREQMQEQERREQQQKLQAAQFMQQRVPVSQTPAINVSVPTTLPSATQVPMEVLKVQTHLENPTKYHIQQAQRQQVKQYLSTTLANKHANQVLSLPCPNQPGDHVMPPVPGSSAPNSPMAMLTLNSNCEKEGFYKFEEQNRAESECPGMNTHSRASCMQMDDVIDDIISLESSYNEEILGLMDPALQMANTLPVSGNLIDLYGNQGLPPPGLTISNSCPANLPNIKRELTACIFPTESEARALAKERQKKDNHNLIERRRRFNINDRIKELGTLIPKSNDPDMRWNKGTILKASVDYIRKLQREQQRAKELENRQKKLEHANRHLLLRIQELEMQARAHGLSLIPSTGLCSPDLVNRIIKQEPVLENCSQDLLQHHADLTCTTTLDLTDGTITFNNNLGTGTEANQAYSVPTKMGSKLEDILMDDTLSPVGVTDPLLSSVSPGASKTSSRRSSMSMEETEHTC

Paired box protein Pax-8 = Paired box protein Pax-8 (Homo sapiens, UniProt Q06710); experiment: inhibitors of PAX8-driven TPO luciferase reporter, dose response, RMG-I cells, cherry-pick (AID 687027); assay type: functional, cell-based;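 note: luciferase reporter driven by Pax8 target thyroperoxidase promoter measured by SteadyGlo luminescence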
Melanocortin receptor 4 = Melanocortin receptor 4 (Homo sapiens, UniProt P32245); experiment: MC4R antagonist potency on cAMP, dose response, cell-based, TR-FRET, biased antagonists (AID 602298); assay type: functional;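 note: antagonist potency against agonist-stimulated cAMP production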
[19] = HepG2 cell cytotoxicity, dose response, cytotoxicity control, plate reader, cherry-pick, antagonist series (AID 743416); assay type: functional, cell-based
[20] = off-target signal loss in HeLa-CEM21 co-culture – HeLa F-luc CTL cells, cherry-picked, counter-screen for HIV-1 Env fusion inhibitor project, dose response (AID 652040); assay type: functional, cell-based;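 note: potency for signal decrease marking cytotoxic or nonspecific inhibition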
[21] = LGR2 antagonists, dose response, cell-based, HEK293, CRE-luciferase reporter, cherry pick, set 2 (AID 743343); assay type: functional;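 note: transfected cells were stimulated with diluted bursicon conditioned medium after compound addition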
[22] = HEK293 cell cytotoxicity, dose response, cytotoxicity control, plate reader, cherry-picked samples (AID 743446); assay type: functional, cell-based
[23] = inhibitors of PGC1a acetylation in cells, dose response, cell-based, cherry-picked samples (AID 720514); assay type: functional;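 note: potency may reflect raised or lowered acetylation signal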
[24] = CEM21 lymphoblast cell cytotoxicity, dose response, cytotoxicity control for viral fusion inhibitor project, CellTiter-Glo luminescence, cherry-picked (AID 652042); assay type: functional, cell-based;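 note: potency for signal decrease meaning cytotoxicity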
[25] = MC4R antagonists, dose response, counter-screen for LGR2 antagonist project, cell-based, plate reader, cherry pick (AID 743444); assay type: functional;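 note: transfected HEK 293 cells stimulated with alpha-MSH peptide; potency of inhibitors of the alpha-MSH evoked signal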
[26] = inhibitors of clade B AD8 Env fusion, dose response, cell-based, cherry-pick (AID 652062); assay type: functional;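 note: luciferase signal from cell-cell fusion driven by HIV-1 clade B AD8 Env; potency is for inhibitors of fusion seen as a drop in luminescence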
fMet-Leu-Phe receptor = fMet-Leu-Phe receptor (Homo sapiens, UniProt P21462); experiment: FPR ligands, dose response (AID 519); assay type: functional
Cytochrome P450 3A4 = Cytochrome P450 3A4 (Homo sapiens, UniProt P08684);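 note: CYP3A4 tested as one member of a cytochrome P450 panel screen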
Cytochrome P450 3A4, sequence (P08684 whole entry): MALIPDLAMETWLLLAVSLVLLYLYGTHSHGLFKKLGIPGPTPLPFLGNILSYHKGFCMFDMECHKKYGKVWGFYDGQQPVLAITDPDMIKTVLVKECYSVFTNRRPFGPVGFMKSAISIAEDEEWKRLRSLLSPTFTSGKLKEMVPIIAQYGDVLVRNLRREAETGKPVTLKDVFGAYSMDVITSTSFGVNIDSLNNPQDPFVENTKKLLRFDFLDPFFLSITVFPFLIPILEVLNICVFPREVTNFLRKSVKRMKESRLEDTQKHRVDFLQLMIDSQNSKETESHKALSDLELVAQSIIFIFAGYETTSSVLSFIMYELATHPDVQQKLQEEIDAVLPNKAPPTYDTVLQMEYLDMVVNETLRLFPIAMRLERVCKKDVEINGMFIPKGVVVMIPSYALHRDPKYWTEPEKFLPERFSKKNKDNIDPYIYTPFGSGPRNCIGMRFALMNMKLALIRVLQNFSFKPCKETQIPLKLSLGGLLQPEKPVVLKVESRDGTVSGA

Vasopressin V1b receptor, sequence (P47901 whole entry): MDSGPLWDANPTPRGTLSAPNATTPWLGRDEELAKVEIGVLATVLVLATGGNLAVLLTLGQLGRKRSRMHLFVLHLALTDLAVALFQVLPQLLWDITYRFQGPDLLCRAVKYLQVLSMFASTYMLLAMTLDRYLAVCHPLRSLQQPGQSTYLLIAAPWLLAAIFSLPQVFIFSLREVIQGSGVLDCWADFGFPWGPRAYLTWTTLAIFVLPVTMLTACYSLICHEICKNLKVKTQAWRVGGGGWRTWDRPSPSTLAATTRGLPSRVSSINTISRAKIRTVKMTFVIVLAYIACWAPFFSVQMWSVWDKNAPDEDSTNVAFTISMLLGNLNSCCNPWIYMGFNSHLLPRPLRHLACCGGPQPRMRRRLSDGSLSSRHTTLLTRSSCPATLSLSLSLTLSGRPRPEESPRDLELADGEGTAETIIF
Galanin receptor type 3, sequence (O60755 whole entry): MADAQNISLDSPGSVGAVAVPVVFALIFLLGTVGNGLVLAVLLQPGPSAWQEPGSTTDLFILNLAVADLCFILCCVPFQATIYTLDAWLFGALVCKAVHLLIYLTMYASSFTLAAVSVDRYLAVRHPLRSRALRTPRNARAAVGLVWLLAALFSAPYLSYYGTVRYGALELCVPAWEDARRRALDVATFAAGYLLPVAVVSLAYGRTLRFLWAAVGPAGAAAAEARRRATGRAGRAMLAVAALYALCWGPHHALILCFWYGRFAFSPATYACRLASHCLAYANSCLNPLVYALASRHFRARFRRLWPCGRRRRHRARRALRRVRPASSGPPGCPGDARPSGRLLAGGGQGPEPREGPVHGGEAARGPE
Vasopressin V2 receptor, sequence (P30518 whole entry): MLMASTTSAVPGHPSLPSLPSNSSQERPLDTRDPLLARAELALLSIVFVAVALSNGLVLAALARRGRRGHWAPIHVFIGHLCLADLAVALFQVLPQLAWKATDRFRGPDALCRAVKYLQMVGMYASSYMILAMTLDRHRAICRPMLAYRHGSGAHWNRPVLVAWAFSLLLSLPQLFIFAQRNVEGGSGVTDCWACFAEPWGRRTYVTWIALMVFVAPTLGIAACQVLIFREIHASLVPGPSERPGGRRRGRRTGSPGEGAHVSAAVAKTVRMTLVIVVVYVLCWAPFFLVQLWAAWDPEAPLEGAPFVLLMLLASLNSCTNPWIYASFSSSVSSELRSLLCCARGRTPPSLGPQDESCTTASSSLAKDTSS
fMet-Leu-Phe receptor, sequence (P21462 whole entry): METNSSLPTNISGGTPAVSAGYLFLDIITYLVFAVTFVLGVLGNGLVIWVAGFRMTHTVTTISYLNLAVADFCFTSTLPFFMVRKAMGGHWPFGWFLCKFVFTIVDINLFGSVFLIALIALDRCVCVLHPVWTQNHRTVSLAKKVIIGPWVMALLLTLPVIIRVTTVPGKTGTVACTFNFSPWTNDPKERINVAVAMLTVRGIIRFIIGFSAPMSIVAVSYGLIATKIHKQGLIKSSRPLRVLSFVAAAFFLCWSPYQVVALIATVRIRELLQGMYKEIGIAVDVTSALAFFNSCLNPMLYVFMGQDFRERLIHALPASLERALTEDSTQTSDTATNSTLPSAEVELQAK
Melanocortin receptor 4, sequence (P32245 whole entry): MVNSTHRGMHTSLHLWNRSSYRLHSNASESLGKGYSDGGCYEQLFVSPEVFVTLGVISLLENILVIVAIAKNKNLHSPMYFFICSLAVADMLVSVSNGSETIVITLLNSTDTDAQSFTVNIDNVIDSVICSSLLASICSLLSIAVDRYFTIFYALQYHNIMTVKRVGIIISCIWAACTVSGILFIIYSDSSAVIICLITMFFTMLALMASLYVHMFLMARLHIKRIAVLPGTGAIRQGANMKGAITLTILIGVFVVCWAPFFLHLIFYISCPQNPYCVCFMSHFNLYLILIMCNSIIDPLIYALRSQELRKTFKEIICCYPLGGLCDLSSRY
Paired box protein Pax-8, sequence (Q06710 whole entry): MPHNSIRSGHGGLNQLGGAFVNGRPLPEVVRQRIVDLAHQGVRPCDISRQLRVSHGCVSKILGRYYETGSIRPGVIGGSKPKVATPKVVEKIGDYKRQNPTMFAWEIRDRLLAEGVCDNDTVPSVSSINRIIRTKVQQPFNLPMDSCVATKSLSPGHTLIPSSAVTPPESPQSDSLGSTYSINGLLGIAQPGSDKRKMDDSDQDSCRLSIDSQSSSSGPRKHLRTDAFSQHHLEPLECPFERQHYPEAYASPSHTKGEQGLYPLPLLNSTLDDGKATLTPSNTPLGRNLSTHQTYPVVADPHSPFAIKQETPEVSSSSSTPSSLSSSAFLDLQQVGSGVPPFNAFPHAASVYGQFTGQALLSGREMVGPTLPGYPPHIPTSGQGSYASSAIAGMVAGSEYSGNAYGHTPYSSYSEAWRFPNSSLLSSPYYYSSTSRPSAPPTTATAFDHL

## CC(C)CCOc1cccc(OCC(=O)Nc2ccncc2)c1
Galanin receptor type 3
  IC50: 1.06 µM (active)
[1]
  AC50: 1.07 µM (active)
[2]
  AC50: 2.72 µM (active)
[3]
  EC50: 3.63 µM (active)
[4]
  EC50: > 160 µM (inactive)
[5]
  AC50: 2.62 µM (active)
[6]
  AC50: 0.571 µM (active)
cells
  EC50: > 29.9 µM (inactive)
[7]
  IC50: > 80 µM (inactive)
[8]
  AC50: 48.5 µM (active)

## Cc1noc(C)c1NC(=O)Nc1ccc2c(c1)C(=O)N([C@H](C)CO)C[C@@H](C)[C@H](CN(C)S(C)(=O)=O)OCCCC[C@@H](C)O2
[9]
  AC50: 16.3 µM (active)
HEK293
  AC50: 16.3 µM (active)

## O=C(C1CCN(c2ncccc2Cl)CC1)N(CC1CC1)c1ccc(Cl)cc1
Vasopressin V1b receptor
  IC50: 7.1 µM (active)
[10]
  IC50: 1.7 µM (active)
[11]
  IC50: 0.0232 µM (active)
Vasopressin V2 receptor
  IC50: 11.3 µM (inactive)

## C#CC(=O)N(c1ccc(OC)cc1OC)C(C(=O)NC1CCCC1)c1cccs1 (centres undefined)
Jurkat
  IC50: 0.32 µM (active)
[12]
  AC50: 14.8 µM (active)
[13]
  IC50: 37.3 µM (inactive)
[14]
  AC50: 13.4 µM (active)
[15]
  AC50: 0.678 µM (active)
[16]
  IC50: > 64.6 µM (inactive)
[2]
  AC50: 1.11 µM (active)
[17]
  AC50: 14.4 µM (active)
[18]
  AC50: 4.73 µM (active)
Paired box protein Pax-8
  AC50: < 0.26 µM (active)
Melanocortin receptor 4
  IC50: > 64.6 µM (inactive)
[19]
  AC50: 0.839 µM (active)
[20]
  AC50: 4.53 µM (active)
[6]
  AC50: 7.12 µM (active)
[21]
  AC50: 8.43 µM (active)
[22]
  AC50: 1.87 µM (active)
[23]
  AC50: 3.91 µM (active)
[24]
  AC50: 0.631 µM (active)
[8]
  AC50: 4.23 µM (active)
[25]
  AC50: 6.64 µM (active)
[26]
  AC50: 9.92 µM (active)

## COc1ccc(-c2cc(C(F)(F)F)nc(N3CCCCC3)n2)cc1OC
fMet-Leu-Phe receptor
  Ki: > 66.7 µM (inactive)
Cytochrome P450 3A4
  AC50: 25.1 µM (inconclusive)
